In patent US7691601B2, “Medium for detecting and/or identifying of microorganisms” (priority 2003, dated 2010):

Tests used:
[1] = Colonies column read for stool without added strain, Salmonella detection medium; set-up: key: 0=no coloration; 0.5=trace of coloration; 1=weak coloration; 2=strong coloration; conditions: no strain
Experimental: (§1) Preparation of the detection medium: A volume of 250 ml of detection medium is prepared from a powdered medium having the following composition:
(§2) Melting is carried out at 100° C., and the medium is autoclaved at 121° C. for 15 minutes. The additives are then added to the medium: Magenta C8 (500 mg/l; B-7102, BIOSYNTH, Staad, Switzerland); X-glucoside (75 mg/l; B-7250, BIOSYNTH, Staad, Switzerland); cefsulodine (10 mg/l; C 4786, Sigma, St Quentin Fallavier, France) and various concentrations of the inhibitor O,O-diethyl p-nitrophenyl phosphate (Paraoxon® ethyl; CAS No. 311-45-5; 36186, Riedel-de Haën, St Quentin Fallavier, France; 0; 1; 5 or 10 mg/l).
(§3) The various detection media thus obtained are then poured into Petri dishes.
(§4) Seeding of Salmonella bacteria: 10 μl of stools are deposited onto a Petri dish, this stool suspension is mixed or not mixed with 10 μl of a suspension of Salmonella (0.5 McF) and isolated as 3 dials on a Petri dish. Various […] and various Salmonella strains originating from the applicant's collection are used according to this protocol. The Petri dishes are incubated at 37° C. for 24 hours. The appearance of a coloration at the point of deposit of the stool (“deposit” column) and at the Salmonella colony (“colony” column) is read according to a semi-quantitative scale: • 0=no coloration • 0.5=trace of coloration • 1=weak coloration • 2=strong coloration The results obtained are given in Table 1.
as §2, with “O,O-dimethyl” for “O,O-diethyl”, “methyl;” for “ethyl;”, “950-35-6;” for “311-45-5; 36186,”, “5, 10, 25” for “0; 1; 5 or 10”
(§5) Seeding of Salmonella bacteria: The Petri dishes are inoculated, incubated and read as in Example 1.
(§6) Preparation of the detection medium: 250 ml of the medium of Example 1, in which the O,O-diethyl p-nitrophenyl phosphate is replaced with various concentrations of O,O-di-(2-chloroethyl)-O-(3-chloro-4-methylcoumarin-7-yl)phosphate (Haloxon®; CAS No. 321-55-1; R276995, Sigma, St Quentin Fallavier, France; 0; 1; 10; 100 or 1000 mg/l), are prepared according to the method of Example 1.
(§7) The various selection media thus obtained are then poured into Petri dishes.

free esterases in stools [2] = test: Coloration at the point of deposit of the stool on Candida detection medium; format: biochemical; set-up: key: 0=no coloration; 0.5=trace of coloration; 1=weak coloration; 2=strong coloration; conditions: Table 4
Experimental: as §1
(§8) Melting is carried out at 100° C., and the medium is autoclaved at 121° C. for 15 minutes. The additives are then added to the medium: Magenta C8 (500 mg/l; B-7102, BIOSYNTH, Staad, Switzerland); X-glucoside (75 mg/l; B-7250, BIOSYNTH, Staad, Switzerland); cefsulodine (10 mg/l; C 4786, Sigma, St Quentin Fallavier, France), and also the esterase inhibitor: • ? O,O-diethyl p-nitrophenyl phosphate: 5 mg/l • ? O,O-dimethyl p-nitrophenyl phosphate: 25 mg/l or • ? O,O-di-(2-chloroethyl)-O-(3-chloro-4-methylcoumarin-7-yl)phosphate: 75 mg/l
as §7
(§9) Seeding of yeast of the Candida genus: 10 μl of stools are deposited onto a Petri dish, and this stool suspension is mixed or not mixed with 10 μl of a suspension of Candida and isolated as 3 dials on a Petri dish. Various stools and various strains of Candida genus originating from the applicant's collection are used according to this protocol. The Petri dishes are incubated at 37° C. for 24 hours.
(§10) The appearance of a coloration at the point of deposit of the stool and in the Candida colonies is read according to a semi-quantitative scale: • 0=absence of coloration • 0.5=trace coloration • 1=weak coloration • 2=strong coloration.

Salmonella Enteritidis = test: Coloration of Salmonella Enteritidis colonies on detection medium; format: cell-based; set-up: key: 0=no coloration; 0.5=trace of coloration; 1=weak coloration; 2=strong coloration
Experimental: as §1, §2, §3, §4
as §2, with “O,O-dimethyl” for “O,O-diethyl”, “methyl;” for “ethyl;”, “950-35-6;” for “311-45-5; 36186,”, “5, 10, 25” for “0; 1; 5 or 10”
as §5, §6, §7

free esterases in stools [3] = test: Coloration at the point of deposit of the stool on Candida detection medium; format: biochemical; set-up: key: 0=absence of coloration; 0.5=trace coloration; 1=weak coloration; 2=strong coloration; conditions: Table 4, no strain
Experimental: as §1, §8, §7, §9, §10

[4] = tested on: free esterases in a stool sample; test: Coloration at the point of deposit of the stool on Salmonella detection medium (Magenta C8); format: biochemical; set-up: key to Deposit coloration: 0=no coloration; 0.5=trace of coloration; 1=weak coloration; 2=strong coloration; conditions: for Aspecific enzymatic reactions due to the presence of free enzymes: stools, Salmonella detection medium, summary in words
Experimental: as §1, §2, §3, §4
as §2, with “O,O-dimethyl” for “O,O-diethyl”, “methyl;” for “ethyl;”, “950-35-6;” for “311-45-5; 36186,”, “5, 10, 25” for “0; 1; 5 or 10”
as §5, §6, §7

Candida albicans = test: Coloration of Candida albicans colonies on detection medium; format: cell-based; set-up: key: 0=absence of coloration; 0.5=trace coloration; 1=weak coloration; 2=strong coloration; conditions: stool B
Experimental: as §1, §8, §7, §9, §10

COP(=O)(OC)Oc1ccc([N+](=O)[O-])cc1 [O,O-dimethyl p-nitrophenyl phosphate]
Colonies coloration ([1]; Table 2, 5 mg/l, stool C): 0 | Colonies coloration ([1]; Table 2, 5 mg/l, stool D): 0 | Colonies coloration ([1]; Table 2, 10 mg/l, stool C): 0 | Colonies coloration ([1]; Table 2, 10 mg/l, stool D): 0 | Colonies coloration ([1]; Table 2, 25 mg/l, stool C): 0 | Colonies coloration ([1]; Table 2, 25 mg/l, stool D): 0 | Deposit coloration (free esterases in stools [2]; 25 mg/l, stool A, Candida albicans): 1 | Deposit coloration (free esterases in stools [2]; 25 mg/l, stool A, Candida dubliniensis): 1 | Deposit coloration (free esterases in stools [2]; 25 mg/l, stool A, Candida krusei): 1 | Deposit coloration (free esterases in stools [2]; 25 mg/l, stool B, Candida albicans): 1 | Deposit coloration (free esterases in stools [2]; 25 mg/l, stool B, Candida dubliniensis): 1 | Deposit coloration (free esterases in stools [2]; 25 mg/l, stool B, Candida krusei): 1 | Colonies coloration (Salmonella Enteritidis; Table 2, 5 mg/l, stool C): 2 | Colonies coloration (Salmonella Enteritidis; Table 2, 5 mg/l, stool D): 2 | Colonies coloration (Salmonella Enteritidis; Table 2, 10 mg/l, stool C): 2 | Colonies coloration (Salmonella Enteritidis; Table 2, 10 mg/l, stool D): 2 | Colonies coloration (Salmonella Enteritidis; Table 2, 25 mg/l, stool C): 2 | Colonies coloration (Salmonella Enteritidis; Table 2, 25 mg/l, stool D): 2 | Deposit coloration (free esterases in stools [3]; 25 mg/l, stool A): 0 | Deposit coloration (free esterases in stools [3]; 25 mg/l, stool B): 0 | Deposit coloration ([4]; Table 2, 5 mg/l, stool C, Salmonella Enteritidis): 1 | Deposit coloration ([4]; Table 2, 5 mg/l, stool C, Salmonella Typhi): 1 | Deposit coloration ([4]; Table 2, 5 mg/l, stool C, no strain): 1 | Deposit coloration ([4]; Table 2, 5 mg/l, stool D, Salmonella Enteritidis): 1 | Deposit coloration ([4]; Table 2, 5 mg/l, stool D, Salmonella Typhi): 1 | Deposit coloration ([4]; Table 2, 5 mg/l, stool D, no strain): 1 | Deposit coloration ([4]; Table 2, 10 mg/l, stool C, Salmonella Enteritidis): 0.5 | Deposit coloration ([4]; Table 2, 10 mg/l, stool C, Salmonella Typhi): 0.5 | Deposit coloration ([4]; Table 2, 10 mg/l, stool C, no strain): 0.5 | Deposit coloration ([4]; Table 2, 10 mg/l, stool D, Salmonella Enteritidis): 1 | Deposit coloration ([4]; Table 2, 10 mg/l, stool D, Salmonella Typhi): 1 | Deposit coloration ([4]; Table 2, 10 mg/l, stool D, no strain): 1 | Deposit coloration ([4]; Table 2, 25 mg/l, stool C, Salmonella Enteritidis): 0 | Deposit coloration ([4]; Table 2, 25 mg/l, stool C, Salmonella Typhi): 0 | Deposit coloration ([4]; Table 2, 25 mg/l, stool C, no strain): 0 | Deposit coloration ([4]; Table 2, 25 mg/l, stool D, Salmonella Enteritidis): 0 | Deposit coloration ([4]; Table 2, 25 mg/l, stool D, Salmonella Typhi): 0 | Deposit coloration ([4]; Table 2, 25 mg/l, stool D, no strain): 0 | Aspecific enzymatic reactions due to the presence of free enzymes [4]: greatly inhibited | Colonies coloration (Candida albicans; Table 4, 25 mg/l): 0.5

Cc1c(Cl)c(=O)oc2cc(OP(=O)(OCCCl)OCCCl)ccc12 [O,O-di-(2-chloroethyl)-O-(3-chloro-4-methylcoumarin-7-yl) phosphate]
Colonies coloration ([1]; Table 3, 1 mg/l, stool A): 0 | Colonies coloration ([1]; Table 3, 1 mg/l, stool B): 0 | Colonies coloration ([1]; Table 3, 10 mg/l, stool A): 0 | Colonies coloration ([1]; Table 3, 10 mg/l, stool B): 0 | Colonies coloration ([1]; Table 3, 100 mg/l, stool A): 0 | Colonies coloration ([1]; Table 3, 100 mg/l, stool B): 0 | Colonies coloration ([1]; Table 3, 1000 mg/l, stool A): 0 | Colonies coloration ([1]; Table 3, 1000 mg/l, stool B): 0 | Deposit coloration (free esterases in stools [2]; 75 mg/l, stool A, Candida albicans): 1 | Deposit coloration (free esterases in stools [2]; 75 mg/l, stool A, Candida dubliniensis): 1 | Deposit coloration (free esterases in stools [2]; 75 mg/l, stool A, Candida krusei): 1 | Deposit coloration (free esterases in stools [2]; 75 mg/l, stool B, Candida albicans): 1 | Deposit coloration (free esterases in stools [2]; 75 mg/l, stool B, Candida dubliniensis): 1 | Deposit coloration (free esterases in stools [2]; 75 mg/l, stool B, Candida krusei): 1 | Colonies coloration (Salmonella Enteritidis; Table 3, 1 mg/l, stool A): 2 | Colonies coloration (Salmonella Enteritidis; Table 3, 1 mg/l, stool B): 2 | Colonies coloration (Salmonella Enteritidis; Table 3, 10 mg/l, stool A): 2 | Colonies coloration (Salmonella Enteritidis; Table 3, 10 mg/l, stool B): 2 | Colonies coloration (Salmonella Enteritidis; Table 3, 100 mg/l, stool A): 2 | Colonies coloration (Salmonella Enteritidis; Table 3, 100 mg/l, stool B): 2 | Colonies coloration (Salmonella Enteritidis; Table 3, 1000 mg/l, stool A): 2 | Colonies coloration (Salmonella Enteritidis; Table 3, 1000 mg/l, stool B): 2 | Deposit coloration (free esterases in stools [3]; 75 mg/l, stool A): 0 | Deposit coloration (free esterases in stools [3]; 75 mg/l, stool B): 0 | Deposit coloration ([4]; Table 3, 1 mg/l, stool A, Salmonella Enteritidis): 1 | Deposit coloration ([4]; Table 3, 1 mg/l, stool A, Salmonella Paratyphi A): 1 | Deposit coloration ([4]; Table 3, 1 mg/l, stool A, Salmonella Typhi): 1 | Deposit coloration ([4]; Table 3, 1 mg/l, stool A, no strain): 1 | Deposit coloration ([4]; Table 3, 1 mg/l, stool B, Salmonella Enteritidis): 0 | Deposit coloration ([4]; Table 3, 1 mg/l, stool B, Salmonella Paratyphi A): 0 | Deposit coloration ([4]; Table 3, 1 mg/l, stool B, Salmonella Typhi): 0 | Deposit coloration ([4]; Table 3, 1 mg/l, stool B, no strain): 1 | Deposit coloration ([4]; Table 3, 10 mg/l, stool A, Salmonella Enteritidis): 1 | Deposit coloration ([4]; Table 3, 10 mg/l, stool A, Salmonella Paratyphi A): 1 | Deposit coloration ([4]; Table 3, 10 mg/l, stool A, Salmonella Typhi): 1 | Deposit coloration ([4]; Table 3, 10 mg/l, stool A, no strain): 1 | Deposit coloration ([4]; Table 3, 10 mg/l, stool B, Salmonella Enteritidis): 0 | Deposit coloration ([4]; Table 3, 10 mg/l, stool B, Salmonella Paratyphi A): 0 | Deposit coloration ([4]; Table 3, 10 mg/l, stool B, Salmonella Typhi): 0 | Deposit coloration ([4]; Table 3, 10 mg/l, stool B, no strain): 0.5 | Deposit coloration ([4]; Table 3, 100 mg/l, stool A, Salmonella Enteritidis): 0.5 | Deposit coloration ([4]; Table 3, 100 mg/l, stool A, Salmonella Paratyphi A): 0.5 | Deposit coloration ([4]; Table 3, 100 mg/l, stool A, Salmonella Typhi): 0.5 | Deposit coloration ([4]; Table 3, 100 mg/l, stool A, no strain): 0.5 | Deposit coloration ([4]; Table 3, 100 mg/l, stool B, Salmonella Enteritidis): 0 | Deposit coloration ([4]; Table 3, 100 mg/l, stool B, Salmonella Paratyphi A): 0 | Deposit coloration ([4]; Table 3, 100 mg/l, stool B, Salmonella Typhi): 0 | Deposit coloration ([4]; Table 3, 100 mg/l, stool B, no strain): 0 | Deposit coloration ([4]; Table 3, 1000 mg/l, stool A, Salmonella Enteritidis): 0 | Deposit coloration ([4]; Table 3, 1000 mg/l, stool A, Salmonella Paratyphi A): 0 | Deposit coloration ([4]; Table 3, 1000 mg/l, stool A, Salmonella Typhi): 0 | Deposit coloration ([4]; Table 3, 1000 mg/l, stool A, no strain): 0 | Deposit coloration ([4]; Table 3, 1000 mg/l, stool B, Salmonella Enteritidis): 0 | Deposit coloration ([4]; Table 3, 1000 mg/l, stool B, Salmonella Paratyphi A): 0 | Deposit coloration ([4]; Table 3, 1000 mg/l, stool B, Salmonella Typhi): 0 | Deposit coloration ([4]; Table 3, 1000 mg/l, stool B, no strain): 0 | Aspecific enzymatic reactions due to the presence of free enzymes [4]: greatly inhibited | Colonies coloration (Candida albicans; Table 4, 75 mg/l): 0.5
